Earlier results in US20060177438A1, “Methods of altering absorption of hydrophobic compounds” (New England Medical Center, priority 2005, published 2006).

Conditions: cited from earlier work

In the case of `CC(C)CCC[C@@H](C)[C@H]1CC[C@H]2[C@@H]3CC=C4C[C@@H](O)CC[C@]4(C)[C@H]3CC[C@]12C` [cholesterol], the “dietary cholesterol absorbed by the human intestine” value is listed as 34-57%.
